Measured values as given in paper PMC8162404, “Proteomimetic surface fragments distinguish targets by function” (Chemical Science, 2020).

How the values were obtained:
Gal-1 [1] = target: T1, Gal-1 (Homo sapiens, UniProt P09382); assay: Competition pull-down with lactose; assay type: binding; conditions: H14 library; lactose 10 mM; read-out: Surface mapping KD (apparent), competition
T1 construct: made in house; host or cells: E. coli BL21(DE3)
Method: Interactions between the H14 helical LSMs and the targets were abundant, but safe recognition of the native PPI interfaces on the targets is a criterion of druggability. To gain insight into the ability of the LSMs to detect orthosteric spots, we carried out pull-down assays in the presence of the native ligands (Table 2) of the targets (Fig. 5). For highlighting the effect of the competitor on the binding fingerprints, KD ratios and the LSM replacement percentages were calculated and are represented as heat maps (see ESI, Fig. S7 ^†). […] This could be explained by the glycan selective native recognition domain of the protein. We note that the replacement pattern for a single probe can, in theory, be complex. […] Moreover, a single probe can bind to both orthosteric and non-orthosteric spots, which limits overall displacement levels. To avoid overlooking interesting orthosteric weak binders, direct replacement levels were assessed (see ESI, Fig. S7 ^†).
Pull-down assay and data analysis
Pull-down assay. LSM sublibraries were screened separately as previously described.(2) Experiments were performed in the following buffers: (i) 20 mM pH 7.4 HEPES, 150 mM NaCl, 5 mM CaCl2 for CaM; (ii) 50 mM pH 7.4 HEPES, 150 mM NaCl, 1 mM TCEP, 1 mM CaCl2 for S100 proteins; (iii) 20 mM pH 7.4 HEPES, 150 mM NaCl, 1 mM TCEP for Gal-1 and (iv) 20 mM pH 7.4 HEPES, 150 mM NaCl for RecQ-WH. Assays were performed in paper filter spin cups (Thermo Scientific) with sample volumes of 100 µl. Hexahistidine-tagged proteins were immobilized on previously washed Co-NTA resin (TALON, Takara Bio USA, Inc., Mountain View, CA) in 64 µM final concentration. LSM sublibrary was added, in which each of the 64 library members were used at a concentration of 1 µM. Samples were incubated at room temperature for 30 min with shaking at 100 rpm. Then, samples were centrifuged at 1000 rpm for 2 min and washed with 100 µl pull-down buffer to remove unbound compounds.
The control experiments were performed using the same compounds and the resin but without the immobilized protein. In case of competitive assays, competitor peptides were added to LSM sublibrary samples in 200 µM final concentration. In the case of Gal-1, lactose (competitor) was used in a concentration of 10 mM. Experiments were performed at least twice. Mean […]
LC-MS methods and parameters. HPLC/ESI-MS analysis was used to characterize the samples from the pull-down assay. LC-MS analysis was performed with a Thermo Scientific Dionex UltiMate 3000 HPLC system interfaced to an LTQ ion trap mass spectrometer (Thermo Electron Corp., San Jose, CA, USA). Samples were injected onto an Aeris Widepore XB-C18 (250 x 4.6 mm) analytical HPLC column using gradient elution 5-80 % solution B during 25 minutes. For pull-down samples, eluent composition was 0.1% acetic acid in distilled water (Solution A) and 0.1% acetic acid in acetonitrile (solution B). Mass spectra were acquired in full scan mode from 200 to 2000 m/z range. For overlapping peaks, selective reaction monitoring (SRM) was […]
MS data analysis. Thermo Xcalibur 2.2 software was used for peak identification and integration. The majority of the foldameric fragments could be resolved independently via HPLC-MS/MS measurements based on molecular weight, MS fragmentation pattern and retention time. Peaks of some foldamers with β3-hIle or β3-hLeu in position R2 could not be resolved, these were integrated and averaged. In the processing method, each sample component was associated to a chromatographic peak based on previously identified mass (m/z) and retention time (ref (2) and Table S7-10). Using ICIS peak detection algorithm, the general detection and integration criteria were: smoothing points: 5, baseline window: 80, area noise factor: 5, peak noise factor: 10. Using these processing setups, all raw data files were reprocessed together and analyzed. Errors in peak identification during the automatic processing were corrected manually.
Calculation of the discussed parameters […]

CaM [2] = target: T2, CaM (Bos taurus, UniProt P62157); assay: Competition pull-down with native ligand TRPV1-Ct15; assay type: binding, bovine; conditions: H14 library; competitor peptide 200 µM; read-out: Surface mapping KD (apparent), competition
T2 construct: made in house; host or cells: E. coli BL21 (DE3)

CaM [3] = target: T2, CaM; assay: Pull-down assay with immobilized protein and LSM libraries; assay type: binding, bovine; conditions: H14 library; 1:2 stoichiometry assumed; read-out: Surface mapping KD (apparent)
Summary of the method: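 His-tagged protein immobilized on Co-NTA resin, equilibrated 30 min at room temperature with LSM sublibraries (64 members, […]), equimolar protein to total probe. CaM buffer: 20 mM HEPES pH 7.4, 150 mM NaCl, 5 mM CaCl2. Bound fractions from HPLC-MS loss of unbound probe versus protein-free resin control; Kd derived.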

S100B = target: T3, S100B (Homo sapiens, UniProt P04271); assay: as above; assay type: binding; conditions: H14 library; 1:1 binding assumed; read-out: Surface mapping KD (apparent)
T3 construct: made in house; host or cells: Escherichia coli BL21(DE3)
T3 sequence (P04271 1-92): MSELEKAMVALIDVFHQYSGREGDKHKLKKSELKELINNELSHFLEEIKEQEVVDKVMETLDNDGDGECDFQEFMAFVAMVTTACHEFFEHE
Summary of the method: (§1)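 Buffers were HEPES pH 7.4 with 150 mM NaCl, plus 1 mM TCEP and 1 mM CaCl2 (50 mM HEPES) for S100A4 and S100B, 1 mM TCEP for Gal-1, and no additive for RecQ-WH. Immobilized protein at 64 µM was equilibrated 30 min with the LSM sublibrary, and unbound probes were measured by LC-MS.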

S100A4 = target: T4, S100A4 (Homo sapiens, UniProt P26447); assay: as above; assay type: binding; conditions: H14 library; 1:1 binding assumed; read-out: Surface mapping KD (apparent)
T4 construct: made in house; host or cells: Escherichia coli BL21(DE3)
T4 sequence (P26447 whole entry): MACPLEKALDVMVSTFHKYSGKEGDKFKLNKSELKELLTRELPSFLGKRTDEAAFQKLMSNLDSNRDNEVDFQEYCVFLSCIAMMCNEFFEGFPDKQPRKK
Summary of the method: as §1

Gal-1 [4] = target: T1, Gal-1; assay: as above; assay type: binding; conditions: H14 library; 1:1 binding assumed; read-out: Surface mapping KD (apparent)
Summary of the method: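 His-tagged protein immobilized on Co-NTA resin (64 µM) in 20 mM HEPES pH 7.4, 150 mM NaCl, equilibrated 30 min at room temperature with foldamer LSM sublibraries at equimolar total concentration. Unbound fractions quantified by HPLC-MS versus protein-free resin control; apparent KD assumes 1:1 binding.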

T1 sequence (P09382 whole entry): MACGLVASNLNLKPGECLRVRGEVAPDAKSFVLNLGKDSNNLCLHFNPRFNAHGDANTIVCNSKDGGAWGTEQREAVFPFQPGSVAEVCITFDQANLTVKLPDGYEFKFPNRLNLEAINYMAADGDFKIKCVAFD

SMILES | Kd (Gal-1 [1]) [µM] | Kd (CaM [2]) [µM] | Kd (CaM [3]) [µM] | Kd (S100B) [µM] | Kd (S100A4) [µM] | Kd (Gal-1 [4]) [µM]
CC(C)[C@@H](CC(=O)N[C@H]1CCCC[C@@H]1C(N)=O)NC(=O)[C@H]1CCCC[C@@H]1NC(=O)[C@H]1CCCC[C@@H]1NC(=O)C[C@H](CCC(=O)O)NC(=O)[C@H]1CCCC[C@@H]1N [H14 EV] | 300 | 492 | – | – | – | –
NCCCC[C@@H](CC(=O)N[C@H]1CCCC[C@@H]1C(=O)N[C@H]1CCCC[C@@H]1C(=O)N[C@@H](CC(=O)O)CC(=O)N[C@H]1CCCC[C@@H]1C(N)=O)NC(=O)[C@H]1CCCC[C@@H]1N [H14 KD] | 290 | 365 | – | – | – | –
NCCCC[C@@H](CC(=O)N[C@H]1CCCC[C@@H]1C(=O)N[C@H]1CCCC[C@@H]1C(=O)N[C@H](CC(=O)N[C@H]1CCCC[C@@H]1C(N)=O)Cc1ccccc1)NC(=O)[C@H]1CCCC[C@@H]1N [H14 KF] | – | 339 | 8 | 26 | 102 | –
NCCCC[C@@H](CC(=O)N[C@H]1CCCC[C@@H]1C(=O)N[C@H]1CCCC[C@@H]1C(=O)N[C@H](CC(=O)N[C@H]1CCCC[C@@H]1C(N)=O)Cc1c[nH]c2ccccc12)NC(=O)[C@H]1CCCC[C@@H]1N [H14 KW] | – | 398 | 3 | 28 | 184 | –
NC(=O)C[C@@H](CC(=O)N[C@H]1CCCC[C@@H]1C(=O)N[C@H]1CCCC[C@@H]1C(=O)N[C@@H](CC(=O)O)CC(=O)N[C@H]1CCCC[C@@H]1C(N)=O)NC(=O)[C@H]1CCCC[C@@H]1N [H14 ND] | 294 | 471 | 211 | – | – | 229
CSCC[C@@H](CC(=O)N[C@H]1CCCC[C@@H]1C(N)=O)NC(=O)[C@H]1CCCC[C@@H]1NC(=O)[C@H]1CCCC[C@@H]1NC(=O)C[C@H](CC(N)=O)NC(=O)[C@H]1CCCC[C@@H]1N [H14 NM] | 406 | 452 | 50 | – | – | 350
NC(=O)C[C@@H](CC(=O)N[C@H]1CCCC[C@@H]1C(=O)N[C@H]1CCCC[C@@H]1C(=O)N[C@@H](CO)CC(=O)N[C@H]1CCCC[C@@H]1C(N)=O)NC(=O)[C@H]1CCCC[C@@H]1N [H14 NS] | 427 | 279 | 184 | – | – | 310
C[C@@H](O)[C@@H](CC(=O)N[C@H]1CCCC[C@@H]1C(N)=O)NC(=O)[C@H]1CCCC[C@@H]1NC(=O)[C@H]1CCCC[C@@H]1NC(=O)C[C@H](CC(N)=O)NC(=O)[C@H]1CCCC[C@@H]1N [H14 NT] | 500 | 336 | 187 | – | – | 350
C[C@@H](CC(=O)N[C@H]1CCCC[C@@H]1C(N)=O)NC(=O)[C@H]1CCCC[C@@H]1NC(=O)[C@H]1CCCC[C@@H]1NC(=O)C[C@H](CCC(N)=O)NC(=O)[C@H]1CCCC[C@@H]1N [H14 QA] | 444 | 211 | 174 | – | – | 349
